Measurements as given in patent US20210121456A1, “USE OF METHYLNALTREXONE TO ATTENUATE TUMOR PROGRESSION” (Salix Pharmaceuticals, Inc., priority 2014, published 2021).

Legend:
colectomy patients = details: more than 500 colectomy patients, two randomized clinical trials; cited from earlier work
[1] = Plasma levels after oral administration; assay type: in vivo
Experimental: Methylnaltrexone is rapidly absorbed after oral administration from the stomach and bowel. Initial plasma levels of the drug are seen within 5-10 minutes of the administration of non-enteric coated compound.

Lewis lung cancer model = details: infusion of MNTX; cited from earlier work
[2] = tested on: cancer subjects with opioid-induced constipation (tumor disease progression); assay: Pooled analysis of Study 1 and Study 2: adverse events of disease progression; assay type: in vivo, human
Excerpt: As part of the routine adverse event (AE) evaluations filled out by all investigators in the studies described in Examples 1 and 2, AEs of tumor progression were tabulated. Both studies were randomized, placebo-controlled trials that involved a 2-week treatment period followed by a 2-week follow-up period. The enrolled subjects were advanced illness (incurable cancer or other end-stage disease) subjects with OIC who were receiving stable doses of laxatives and opioid analgesics. In the context of the study, a stable dose of opioid analgesics was defined as no reduction in the dose of opioid analgesic of ≥50% for at least three days before the first dose of MNTX. A stable dose of laxatives was defined as having a standing laxative order (and not PRN, or as-needed) for at least three days before the first dose of MNTX. A diagnosis of constipation was provided if the subject had (a) fewer than 3 bowel movements during the previous week by history and no clinically notable laxation in the 24 hours before the first dose of MNTX, or (b) no clinical notable laxation in the 48 hours before the first dose of MNTX. In Study 1 (Example 1), subjects received subcutaneous MNTX 0.15 mg/kg or placebo (PBO) every other day (QOD), and in Study 2 (Example 2) subjects received subcutaneous MNTX (8 mg or 12 mg based on body weight 38 to <62 kg or ≥62 kg, respectively) or placebo administered QOD. The 12 mg fixed dose was designed to correspond to the 0.15 mg/kg weight-based dose. Rescue-laxatives, enemas or manual disimpactions were not administered within 4 hours before or after each dose of MNTX. For the purpose of this analysis, only subjects with a cancer-related diagnosis were considered. For statistical significance testing, the Fisher's exact test was used (p<0.05).
Table 1 and FIG. 1 provide AEs of disease progression in the pooled analysis and for each individual study during the double-blind phase of the studies.
Furthermore, when the pool of MNTX-treated subjects across both studies was examined, there was a significant decrease in the percentage of subjects with disease progression between subjects who responded to MNTX treatment and those who were considered non-responders. A subject with laxation within 4 hours after two of the first four doses of MNTX was considered a responder.
For the analysis carried out in this Example and in Example 3, a subject with laxation occurring from 0-4 hours after two of the first four doses of MNTX was considered a MNTX responder or responsive subject. Data for placebo patients who elected to participate in the open-label MNTX treatment phase was collected from the first 4 doses of open-label treatment. Data for the MNTX-treated patients was collected from the first 4 doses of the double-blind phase of the study.

[3] = tested on: subjects with advanced medical illness and opioid-induced constipation; assay: Study 1: double-blind, randomized, placebo-controlled study of subcutaneous methylnaltrexone; assay type: in vivo, human
Experimental: A double-blind, randomized, placebo-controlled study of subcutaneous methylnaltrexone (MNTX) was conducted in subjects with advanced medical illness and a current history of opioid-induced constipation. To satisfy eligibility criteria for enrollment, subjects were required to be on stable doses of laxatives and opioid analgesics. In the context of the study, a stable dose of opioid analgesics was defined as no reduction in the dose of opioid analgesic of ≥50% for at least three days before the first dose of MNTX. A stable dose of laxatives was defined as having a standing laxative order (and not PRN, or as-needed) for at least three days before the first dose of MNTX. A diagnosis of constipation was provided if the subject had fewer than 3 bowel movements during the previous week by history and no clinically notable laxation in the 24 hours before the first dose of MNTX, or no clinical notable laxation in the 48 hours before the first dose of MNTX.
Eligible subjects were randomized to one of two treatment groups: MNTX 0.15 mg/kg (e.g., 8 mg for patients <62 kg body weight and 12 mg for patients ≥62 kg body weight) or placebo. Each treatment was administered every other day (QOD) subcutaneously for two weeks. Injections were administered subcutaneously in either the shoulder area, buttocks, abdomen, thighs or extremities. Rescue-laxatives, enemas or manual disimpactions were not administered within 4 hours before or after each dose of MNTX. Endpoints included: (1) the proportion of subjects with rescue-free laxation within 4 hours of the first dose of study drug, and (2) the proportion of subjects with ≥2 rescue-free laxations within 4 hours post dosing over 4 doses of study drug (the first week of the two-week treatment period). One hundred and thirty-four (134) subjects were enrolled and evaluated, including 78 patients with advanced cancers and 56 patients with other advanced illness, including COPD, cardiovascular disease and severe neurologic disease. Seventy-one (71) of the 134 subjects were randomized to the placebo group, and sixty-two (62) of the 134 subjects were randomized to MNTX treatment group. The co-primary efficacy endpoints of this study were: 1) the proportion of patients with laxation within 4 hours after the first dose of study drug, and 2) the proportion of patients with laxation within 4 hours after 2 of the first 4 doses (the first week of double-blind treatment). The primary endpoint was laxation within 4 hours. Secondary endpoints included the use of rescue medication and frequency of symptoms within 24 hours. […]

[4] = MNTX 0.15 mg/kg SC QOD, double-blind
[5] = regardless of the time after dose

C[N@+]1(CC2CC2)CC[C@]23c4c5ccc(O)c4O[C@H]2C(=O)CC[C@@]3(O)[C@H]1C5.[Br-] [MNTX, (R)—N-(cyclopropylmethyl) noroxymorphone methobromide]
safety and perioperative analgesia (colectomy patients): safely given
plasma levels with an enteric coating which prevents gastric absorption ([1]; enteric coated, oral): lower plasma levels
time to initial plasma levels after oral administration ([1]; non-enteric coated compound): 5 to 10 min
tumor growth and metastasis (Lewis lung cancer model): dramatically reduced growth and metastasis
Adverse Events of Disease Progression, n/N ([2]; Combined (Study 1 & Study 2), double-blind phase, cancer subjects): 16/116
% Progression ([2]; MNTX Non-Responders): 22.0%
Disease Progression (number of subjects) ([2]; MNTX Non-Responders): 11
No Disease Progression (number of subjects) ([2]; MNTX Non-Responders): 39
% Progression ([2]; MNTX Responders): 7.6%
No Disease Progression (number of subjects) ([2]; MNTX Responders): 61
Disease Progression (number of subjects) ([2]; MNTX Responders (laxation within 4 hours after two of the first four doses)): 5
No Disease Progression (number of subjects) ([2]; MNTX Total): 100
Disease Progression (number of subjects) ([2]; MNTX Total, pooled): 16
Adverse Events of Disease Progression, % ([2]; Study 1, double-blind phase): (16.2%)
Adverse Events of Disease Progression, n/N ([2]; Study 1, double-blind phase): 6/37
Adverse Events of Disease Progression, % ([2]; Study 2, double-blind phase): (12.7%)
Adverse Events of Disease Progression, n/N ([2]; Study 2, double-blind phase): 10/79
reduction in the incidence of AE of disease progression versus placebo ([2]; pooled analysis): ~46%
subjects with improvement in constipation distress ([3]; Day 1): 53%
subjects for whom the bowel status was improved (second global rating, 'Likewise') ([3]; Day 7): 69.4%
subjects who rated their bowel status improved (global rating scale) ([3]; Day 7): 73.5%
subjects with improvement in constipation distress ([3]; Day 7): 64%
subjects for whom the bowel status was improved (second global rating, 'Likewise') ([3]; Day 14): 67.9%
subjects who rated their bowel status improved (global rating scale) ([3]; Day 14): 67.9%
subjects with improvement in constipation distress ([3]; Day 14): 60%
subjects with rescue-free laxation within 4 hours after at least 2 of the first 4 doses ([3]; MNTX 0.15 mg/kg SC QOD): 51.6%
subjects with rescue-free laxation within 4 hours after at least 2 of the first 4 doses (number) ([3]; MNTX 0.15 mg/kg SC QOD): Thirty-two
subjects with rescue-free laxation within 4 hours after at least 4 of the maximum 7 doses ([3]; MNTX 0.15 mg/kg SC QOD): 38.7%
subjects with rescue-free laxation within 4 hours after at least 4 of the maximum 7 doses (number) ([3]; MNTX 0.15 mg/kg SC QOD): twenty-four
subjects with rescue-free laxation within 4 hours after the first dose [3, 4]: 48.4%
subjects with rescue-free laxation within 4 hours after the first dose (number) [3, 4]: 30 subjects
median time to rescue-free laxation after the first dose ([3]; based on the subjects who had laxation): 1.0 h
subjects using enemas ([3]; during double-blind treatment (baseline 12.7%)): 23.8%
subjects using osmotic agents ([3]; during the study (baseline 30.2%)): 33.3%
subjects with at least one rescue-free laxation ([3]; first week of treatment): 95.2%
rescue-free laxations within 4 hours after any dose rated as moderate, considerable, or great difficulty ([3]; in vivo): 33.0%
subjects with rescue-free laxations within 4 hours after any individual dose ([3]; range over doses): 37.3-48.4%
subjects with rescue-free laxations within 24 hours after any individual dose ([3]; range over doses): 55.4-66.0%
subjects with at least three rescue-free laxations per week [3, 5]: 67.7%
subjects with at least three rescue-free laxations per week (number) [3, 5]: 42 subjects
watery bowel movements ([3]; rescue-free laxations within 4 hours after any dose): 15.9%
subjects with at least one rescue-free laxation ([3]; second week of treatment): 91.2%
